Like-named read-outs stand apart in the source and are kept apart here.
Legend:
[1] = molecular target: T1, AnGBase (A. niger GBase) (Aspergillus niger, UniProt W8R465); experiment: product inhibition, Cheng-Prusoff; format: biochemical
T1 sequence (W8R465 21-422 limits assumed): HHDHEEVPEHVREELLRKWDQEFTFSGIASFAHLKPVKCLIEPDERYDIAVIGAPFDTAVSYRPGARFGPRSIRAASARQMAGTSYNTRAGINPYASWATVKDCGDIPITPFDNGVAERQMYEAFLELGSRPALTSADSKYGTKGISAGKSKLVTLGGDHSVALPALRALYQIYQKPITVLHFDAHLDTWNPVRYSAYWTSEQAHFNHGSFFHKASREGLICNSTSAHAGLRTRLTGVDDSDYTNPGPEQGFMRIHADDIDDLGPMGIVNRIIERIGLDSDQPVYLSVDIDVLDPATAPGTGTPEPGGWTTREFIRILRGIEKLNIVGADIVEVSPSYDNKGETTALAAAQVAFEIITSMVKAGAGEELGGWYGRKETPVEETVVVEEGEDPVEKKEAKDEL
Description: product inhibition, Cheng-Prusoff on AnGBase (A. niger GBase)

[2] = molecular target: T2, CpGBase (C. parapsilosis 4-guanidinobutyrase; CparGBase) (Lodderomyces parapsilosis, UniProt G8B5B7); experiment: modified Archibald urea assay, product inhibition, Cheng-Prusoff; format: biochemical
T2 construct: gene CPAR2_602270
T2 sequence (G8B5B7 16-367 limits assumed): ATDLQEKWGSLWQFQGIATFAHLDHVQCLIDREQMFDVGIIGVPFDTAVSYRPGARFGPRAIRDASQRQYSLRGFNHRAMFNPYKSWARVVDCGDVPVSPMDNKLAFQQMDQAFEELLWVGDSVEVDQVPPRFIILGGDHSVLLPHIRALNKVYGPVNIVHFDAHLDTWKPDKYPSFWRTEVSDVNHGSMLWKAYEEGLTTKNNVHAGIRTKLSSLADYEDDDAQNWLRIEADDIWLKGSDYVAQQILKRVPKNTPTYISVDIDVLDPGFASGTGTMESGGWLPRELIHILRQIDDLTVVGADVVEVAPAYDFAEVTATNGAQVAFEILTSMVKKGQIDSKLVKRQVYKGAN
Description: modified Archibald urea assay, product inhibition, Cheng-Prusoff on CpGBase (C. parapsilosis 4-guanidinobutyrase; CparGBase)

[3] = substrate: N=C(N)NCCC(=O)O; experiment: purified protein; format: biochemical, Lodderomyces parapsilosis; details: 20 mM phosphate buffer, 37 °C, 20 min, enriched enzyme
[4] = substrate: N=C(N)NCCCC(=O)O; experiment: purified protein; format: biochemical, Lodderomyces parapsilosis; details: 20 mM phosphate buffer, 37 °C, 20 min, enriched enzyme

How did the Ki ([1]; read-out: KI / GABA) turn out when `NCCCC(=O)O` [GABA] was run?
The Ki was 4.1 ± 1.1 mM.

And the Ki ([2]; read-out: KI / GABA)?
The Ki was 3.1 ± 0.5 mM.

How did the Ki ([1]; read-out: KI / β-alanine) turn out when `NCCC(=O)O` [β-alanine] was run?
Its Ki is 48.7 ± 0.8 mM.

What about the Ki ([2]; read-out: KI / β-alanine) of the same molecule?
Its Ki is 7.8 ± 1.2 mM.

B1: CpGBase (C. parapsilosis 4-guanidinobutyrase; CparGBase) (Lodderomyces parapsilosis CDC317) (protein)
chain: ATDLQEKWGSLWQFQGIATFAHLDHVQCLIDREQMFDVGIIGVPFDTAVSYRPGARFGPRAIRDASQRQYSLRGFNHRAMFNPYKSWARVVDCGDVPVSPMDNKLAFQQMDQAFEELLWVGDSVEVDQVPPRFIILGGDHSVLLPHIRALNKVYGPVNIVHFDAHLDTWKPDKYPSFWRTEVSDVNHGSMLWKAYEEGLTTKNNVHAGIRTKLSSLADYEDDDAQNWLRIEADDIWLKGSDYVAQQILKRVPKNTPTYISVDIDVLDPGFASGTGTMESGGWLPRELIHILRQIDDLTVVGADVVEVAPAYDFAEVTATNGAQVAFEILTSMVKKGQIDSKLVKRQVYKGAN
For B1, which Km [3] is on record?
The Km was 9.6 ± 0.4 mM.

And the Km [4]?
Its Km is 4.6 ± 0.5 mM.
